In patent US9855265B2, “Methods for treating cancer with TrkA receptor tyrosine kinase antagonists” (VM Oncology LLC, priority 2014, dated 2018):

How the values were obtained:
JAK3 = JAK3 (Homo sapiens, UniProt P52333); assay: radiometric kinase assay, other kinases: JAK3; type: biochemical; settings: duplicate
Experimental: (§1) Compound inhibition in a radiometric based mixed micelle assay: In a final reaction volume of 25 μL, TrkA (h) ([…]) is incubated with the kinase reaction buffer (20 mM HEPES (pH 7.5), 10 mM MgCl2, 1 mM EGTA, 0.02% Brij 35, 0.02 mg/ml BSA, 0.1 mM Na3VO4, 2 mM DTT, 1% DMSO), 0.2 mg/ml substrate PolyEY(4:1) and […], and [^33P-ATP](specific activity approx. 500 cpm/pmol, concentration as required). The reaction is initiated by the addition of the MgATP mix. After incubation for at least 40 minutes at room temperature, the reaction is stopped by the addition of 5 μL of a 3% phosphoric acid solution. 10 μL of the reaction is then spotted onto a P30 filtermat and washed three times for 5 minutes in 75 mM phosphoric acid and once in methanol prior to drying and scintillation counting. TrkA: Recombinant Human Cytoplasmic Domain (amino acids 441-796), Histidine-tagged, expressed in insect cells. Activated in vitro via auto-phosphorylation. Mw=42.8 kDa. Substrates for kinases: poly(EY) for TRKA; poly(EY)(4:1) with 2 mM MnCl2, average Mw=16 kDa Standard conditions (unless otherwise specified): 30 nM TRKA, 0.2 mg/ml poly(EY)+2 mM MnCl2, and 10 μM ([γ-^33P]) ATP. Using the similar assay condition with other kinases of recombinant human cytoplasmic domain, the activities of other kinases could be also measured.

TIE2/TEK = molecular target: T1, TIE2/TEK (Homo sapiens, UniProt Q02763); assay: radiometric kinase assay, other kinases: TIE2/TEK; type: biochemical; settings: duplicate
T1 construct: other kinases of recombinant human cytoplasmic domain
T1 sequence (Q02763 770-1124 limits assumed): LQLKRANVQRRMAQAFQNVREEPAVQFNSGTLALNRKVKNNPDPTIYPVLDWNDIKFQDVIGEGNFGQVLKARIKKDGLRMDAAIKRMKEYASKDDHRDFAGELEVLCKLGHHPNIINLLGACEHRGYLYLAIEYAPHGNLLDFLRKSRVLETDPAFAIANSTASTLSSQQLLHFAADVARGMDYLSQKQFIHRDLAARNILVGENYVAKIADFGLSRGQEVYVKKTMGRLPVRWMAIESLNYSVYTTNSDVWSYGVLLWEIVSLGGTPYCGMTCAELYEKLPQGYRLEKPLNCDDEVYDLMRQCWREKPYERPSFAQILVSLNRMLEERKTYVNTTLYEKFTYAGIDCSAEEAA
Experimental: as §1

VEGFR3/FLT4 = molecular target: T2, VEGFR3/FLT4 (Homo sapiens, UniProt P35916); assay: radiometric kinase assay, other kinases: VEGFR3/FLT4; type: biochemical; settings: duplicate
T2 construct: other kinases of recombinant human cytoplasmic domain
Experimental: as §1

FLT3 (CD) = molecular target: T3, FLT3 (CD) (Homo sapiens, UniProt P36888); assay: radiometric kinase assay, other kinases: FLT3 (CD); type: biochemical; settings: duplicate
T3 construct: other kinases of recombinant human cytoplasmic domain
T3 sequence (P36888 564-993 limits assumed): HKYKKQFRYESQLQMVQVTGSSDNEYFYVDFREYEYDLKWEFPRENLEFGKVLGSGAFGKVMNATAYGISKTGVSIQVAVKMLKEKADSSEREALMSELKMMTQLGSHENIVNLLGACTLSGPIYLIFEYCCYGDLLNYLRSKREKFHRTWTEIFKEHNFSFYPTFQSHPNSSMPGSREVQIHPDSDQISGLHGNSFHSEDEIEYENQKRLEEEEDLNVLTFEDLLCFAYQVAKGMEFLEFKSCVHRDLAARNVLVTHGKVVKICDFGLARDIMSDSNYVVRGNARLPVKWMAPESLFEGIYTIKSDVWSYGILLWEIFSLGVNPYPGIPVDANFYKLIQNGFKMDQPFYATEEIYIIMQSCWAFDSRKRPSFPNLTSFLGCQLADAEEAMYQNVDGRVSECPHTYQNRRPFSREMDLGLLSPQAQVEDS
Experimental: as §1

TrkC [1] = molecular target: T4, TrkC (Homo sapiens, UniProt Q16288); assay: live whole cell based functional assay, NT3 stimulated TrkC activation; design: expressed in transfected cells; settings: triplicate
Target sequence in this assay (Q16288 32-839): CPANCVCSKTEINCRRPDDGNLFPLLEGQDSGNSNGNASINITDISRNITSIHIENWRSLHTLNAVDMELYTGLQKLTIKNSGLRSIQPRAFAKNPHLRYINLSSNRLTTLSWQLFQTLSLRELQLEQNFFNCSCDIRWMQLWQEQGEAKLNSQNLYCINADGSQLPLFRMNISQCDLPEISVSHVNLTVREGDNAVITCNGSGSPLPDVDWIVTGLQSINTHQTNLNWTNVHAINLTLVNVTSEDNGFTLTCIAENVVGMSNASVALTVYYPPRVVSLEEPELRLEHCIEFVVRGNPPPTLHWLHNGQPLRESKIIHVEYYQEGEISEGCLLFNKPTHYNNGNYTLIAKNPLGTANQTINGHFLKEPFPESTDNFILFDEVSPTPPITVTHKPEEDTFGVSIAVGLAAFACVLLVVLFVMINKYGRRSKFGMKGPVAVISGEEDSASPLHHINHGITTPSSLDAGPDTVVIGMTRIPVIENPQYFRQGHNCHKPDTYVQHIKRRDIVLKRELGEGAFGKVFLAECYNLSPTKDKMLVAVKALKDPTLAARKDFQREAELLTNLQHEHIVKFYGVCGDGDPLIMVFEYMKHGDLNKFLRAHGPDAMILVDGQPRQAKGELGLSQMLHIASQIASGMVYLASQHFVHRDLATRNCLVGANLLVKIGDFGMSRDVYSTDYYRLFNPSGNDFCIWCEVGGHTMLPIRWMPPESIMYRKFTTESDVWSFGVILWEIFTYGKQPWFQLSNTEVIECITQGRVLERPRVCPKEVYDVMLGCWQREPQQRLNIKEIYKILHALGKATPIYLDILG

IR = molecular target: T5, IR (Homo sapiens, UniProt P06213); assay: radiometric kinase assay, other kinases: IR; type: biochemical; settings: duplicate
T5 construct: other kinases of recombinant human cytoplasmic domain
T5 sequence (P06213 980-1382 limits assumed): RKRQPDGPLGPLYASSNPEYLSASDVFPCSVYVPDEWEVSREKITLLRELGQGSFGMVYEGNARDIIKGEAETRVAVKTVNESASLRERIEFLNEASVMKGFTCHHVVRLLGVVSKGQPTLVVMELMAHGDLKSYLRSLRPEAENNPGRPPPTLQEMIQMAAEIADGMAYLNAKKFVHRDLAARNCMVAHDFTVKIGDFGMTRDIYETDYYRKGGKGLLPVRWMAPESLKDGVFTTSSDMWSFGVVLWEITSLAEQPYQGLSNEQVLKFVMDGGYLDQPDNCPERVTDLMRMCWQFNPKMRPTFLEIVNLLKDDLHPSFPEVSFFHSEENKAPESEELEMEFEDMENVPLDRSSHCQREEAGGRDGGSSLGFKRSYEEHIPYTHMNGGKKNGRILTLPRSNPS
Experimental: as §1

PKCmu/PKD1 = PKCmu/PKD1 (Homo sapiens, UniProt Q15139); assay: radiometric kinase assay, other kinases: PKCmu/PKD1; type: biochemical; settings: duplicate
Experimental: as §1

PKG1b = PKG1b (Homo sapiens, UniProt Q13976); assay: radiometric kinase assay, other kinases: PKG1b; type: biochemical; settings: duplicate
Experimental: as §1

PDGFRb = molecular target: T6, PDGFRb (Homo sapiens, UniProt P09619); assay: radiometric kinase assay, other kinases: PDGFRb; type: biochemical; settings: duplicate
T6 construct: other kinases of recombinant human cytoplasmic domain
T6 sequence (P09619 554-1106 limits assumed): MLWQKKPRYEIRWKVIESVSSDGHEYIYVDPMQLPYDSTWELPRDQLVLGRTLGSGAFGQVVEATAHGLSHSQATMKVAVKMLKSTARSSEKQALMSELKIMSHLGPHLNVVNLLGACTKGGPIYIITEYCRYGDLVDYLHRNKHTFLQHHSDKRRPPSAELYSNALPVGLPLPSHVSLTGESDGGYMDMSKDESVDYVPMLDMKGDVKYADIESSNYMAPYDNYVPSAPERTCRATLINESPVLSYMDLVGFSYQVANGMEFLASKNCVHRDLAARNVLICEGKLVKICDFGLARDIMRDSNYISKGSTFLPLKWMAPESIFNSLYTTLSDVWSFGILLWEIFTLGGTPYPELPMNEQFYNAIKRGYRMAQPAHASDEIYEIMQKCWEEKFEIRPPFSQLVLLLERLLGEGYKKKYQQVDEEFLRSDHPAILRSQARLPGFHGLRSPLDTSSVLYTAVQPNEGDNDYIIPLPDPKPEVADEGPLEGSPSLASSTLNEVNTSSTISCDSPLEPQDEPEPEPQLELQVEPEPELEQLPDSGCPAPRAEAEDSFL
Experimental: as §1

P38a/MAPK14 = P38a/MAPK14 (Homo sapiens, UniProt Q16539); assay: radiometric kinase assay, other kinases: P38a/MAPK14; type: biochemical; settings: duplicate
Chain of P38a/MAPK14 (Q16539 whole entry): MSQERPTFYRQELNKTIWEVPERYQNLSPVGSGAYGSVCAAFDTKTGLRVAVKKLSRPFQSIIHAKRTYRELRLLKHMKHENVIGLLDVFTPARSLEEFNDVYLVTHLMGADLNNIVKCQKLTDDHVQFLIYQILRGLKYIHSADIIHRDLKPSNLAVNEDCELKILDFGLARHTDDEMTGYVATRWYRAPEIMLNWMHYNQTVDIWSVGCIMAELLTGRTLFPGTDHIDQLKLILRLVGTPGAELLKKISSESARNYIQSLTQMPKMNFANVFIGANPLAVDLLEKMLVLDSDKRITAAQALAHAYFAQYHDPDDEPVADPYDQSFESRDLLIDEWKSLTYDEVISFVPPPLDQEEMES
Experimental: as §1

[2] = test system: CCI rats, mechanical allodynia; settings: CCI rats, 150 mg/kg oral dose
Experimental: Chronic Constriction Injury (CCI) Model of Neuropathic Pain in Rats. […] Chronic constriction injury of the sciatic nerve was produced by tying four loose ligatures around the left sciatic nerve according to the method of Bennett and Xie. […] Calibrated von Frey filaments were used to determine the lowest mechanical (tactile) threshold required to evoke a brisk paw withdrawal reflex in the rat hindpaws. Rats were allowed to acclimatize in wire mesh cages for 15-20 min prior to von Frey testing. Assessment of paw withdrawal thresholds (PWTs) using von Frey filaments was undertaken prior to CCI-surgery (pre-surgery baseline on day 0). Before the drug dosing on day 14, the pre-dose baseline was recorded for each rat. […] Drug-naïve CCI-rats (n=4-6 per group) were used. The oral vehicle was 0.5% CMC-Na/0.1% Tween 80 in distilled water. The positive control gabapentin was dissolved in the vehicle and orally given at 100 mg/kg (by oral gavage). Test compound was suspended in the vehicle and orally given at 50 mg/kg and 100 mg/kg.

TrkB [3] = molecular target: T7, TrkB (Homo sapiens, UniProt Q16620); assay: live whole cell based functional assay, BDNF stimulated TrkB activation; design: expressed in transfected cells; settings: triplicate
FES/FPS = FES/FPS (Homo sapiens, UniProt P07332); assay: radiometric kinase assay, other kinases: FES/FPS; type: biochemical; settings: duplicate
Experimental: as §1

FGR = FGR (Homo sapiens, UniProt P09769); assay: radiometric kinase assay, other kinases: FGR; type: biochemical; settings: duplicate
Chain of FGR (P09769 whole entry): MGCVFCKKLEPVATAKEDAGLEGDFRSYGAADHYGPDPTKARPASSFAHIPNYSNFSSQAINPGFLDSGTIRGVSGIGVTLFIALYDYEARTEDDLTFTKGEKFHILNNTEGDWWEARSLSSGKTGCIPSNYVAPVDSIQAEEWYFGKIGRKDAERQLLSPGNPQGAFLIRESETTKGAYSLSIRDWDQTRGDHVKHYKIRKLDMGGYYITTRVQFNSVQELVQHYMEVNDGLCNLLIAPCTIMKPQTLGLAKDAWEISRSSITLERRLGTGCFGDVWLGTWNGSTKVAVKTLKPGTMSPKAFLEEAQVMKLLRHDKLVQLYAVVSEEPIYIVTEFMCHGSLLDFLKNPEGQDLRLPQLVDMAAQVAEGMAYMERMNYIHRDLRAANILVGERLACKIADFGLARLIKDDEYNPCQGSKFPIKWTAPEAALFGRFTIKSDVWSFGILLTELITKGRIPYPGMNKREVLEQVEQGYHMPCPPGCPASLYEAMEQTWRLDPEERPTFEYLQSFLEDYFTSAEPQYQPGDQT
Experimental: as §1

PKCiota = PKCiota (Homo sapiens, UniProt P41743); assay: radiometric kinase assay, other kinases: PKCiota; type: biochemical; settings: duplicate
Experimental: as §1

TrkB [4] = molecular target: T7, TrkB; assay: radiometric kinase assay, other kinases: TrkB; type: biochemical; design: other kinases of recombinant human cytoplasmic domain; settings: duplicate
Experimental: as §1
Target sequence in this assay (Q16620 455-822 limits assumed): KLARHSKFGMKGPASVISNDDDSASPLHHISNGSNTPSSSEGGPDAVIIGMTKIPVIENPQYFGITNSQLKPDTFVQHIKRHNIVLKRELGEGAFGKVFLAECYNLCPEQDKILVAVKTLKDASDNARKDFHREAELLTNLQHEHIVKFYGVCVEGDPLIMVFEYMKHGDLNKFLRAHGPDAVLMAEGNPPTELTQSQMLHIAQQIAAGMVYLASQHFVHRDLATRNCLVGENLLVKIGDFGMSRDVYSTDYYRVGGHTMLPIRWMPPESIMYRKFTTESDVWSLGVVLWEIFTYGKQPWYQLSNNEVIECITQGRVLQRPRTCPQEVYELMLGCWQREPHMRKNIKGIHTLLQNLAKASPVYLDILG

ABL1 = ABL1 (Homo sapiens, UniProt P00519); assay: radiometric kinase assay, other kinases: ABL1; type: biochemical; settings: duplicate
Experimental: as §1

PKCgamma = PKCgamma (Homo sapiens, UniProt P05129); assay: radiometric kinase assay, other kinases: PKCgamma; type: biochemical; settings: duplicate
Experimental: as §1

TrkC [5] = molecular target: T4, TrkC; assay: radiometric kinase assay, other kinases: TrkC; type: biochemical; design: other kinases of recombinant human cytoplasmic domain; settings: duplicate
Experimental: as §1

AKT1 = AKT1 (Homo sapiens, UniProt P31749); assay: radiometric kinase assay, other kinases: AKT1; type: biochemical; settings: duplicate
Chain of AKT1 (P31749 whole entry): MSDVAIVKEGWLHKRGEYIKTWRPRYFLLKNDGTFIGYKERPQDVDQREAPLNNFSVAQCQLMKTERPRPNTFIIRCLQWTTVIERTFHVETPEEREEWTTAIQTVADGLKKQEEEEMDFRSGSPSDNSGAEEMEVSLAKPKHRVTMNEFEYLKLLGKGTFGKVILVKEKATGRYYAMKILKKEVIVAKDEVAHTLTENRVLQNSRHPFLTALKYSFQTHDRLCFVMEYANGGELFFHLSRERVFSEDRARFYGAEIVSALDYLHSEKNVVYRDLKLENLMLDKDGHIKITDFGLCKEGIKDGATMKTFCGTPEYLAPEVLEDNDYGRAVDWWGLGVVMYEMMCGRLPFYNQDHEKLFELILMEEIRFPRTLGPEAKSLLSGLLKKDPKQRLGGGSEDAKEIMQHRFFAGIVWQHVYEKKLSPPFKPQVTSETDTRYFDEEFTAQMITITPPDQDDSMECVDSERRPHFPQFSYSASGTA
Experimental: as §1

TEC = TEC (Homo sapiens, UniProt P42680); assay: radiometric kinase assay, other kinases: TEC; type: biochemical; settings: duplicate
Experimental: as §1

RAF1 = RAF1 (Homo sapiens, UniProt P04049); assay: radiometric kinase assay, other kinases: RAF1; type: biochemical; settings: duplicate
Experimental: as §1

PKCbetaII = PKCbetaII (Homo sapiens, UniProt P05771); assay: radiometric kinase assay, other kinases: PKCbetaII; type: biochemical; settings: duplicate
Experimental: as §1

[6] = test system: NCI-N87 human stomach cancer cells; assay: Cell Viability and Proliferation Assay, NCI-N87; type: cell-based; settings: after 24 incubation
Experimental: Cell Viability and Proliferation Assays. To assess the chemosensitivity of tumor cells, cell viability is measured by CellTiter-Glo® Luminescent Cell Viability Assay (Promega; Wis., USA) per the manufacturer's instruction. Briefly, 5×10^3 to 7×10^5 cells/ml are cultured in sterile 96-well plates in the presence of increasing concentrations of the drugs (test article, 0 to 100 μM), or vehicle in RPMI medium. The plates are then incubated for 24 to 96 h, and then 100 μl of CellTiter-Glo reagent is added to lyse the cells. After a 10-min incubation at room temperature, the luminescence is recorded in a luminometer with an integration time of 1 s per well. The luminescence signals for the drug-treated cells are normalized by the luminescence signal obtained from vehicle-treated cells. As an alternative method to quantitate cell viability, the trypan blue exclusion dye method was used. Vehicle- or drug-treated cells were assayed by adding trypan blue solution (0.4% in phosphate-buffered saline [PBS]) to the culture medium. After 3 min, the number of dead cells that retained the dye is compared to the total number of cells to calculate cell viability. GraphPad Prism 5 software is used to calculate IC50 and plot effect-dose curve of drugs. Multiplate reader: EnVision 2104 (PerkinElmer). % of control variability=100*[(X(drug_treated)−L(baseline))/(H(vehicle_control)−L(baseline))]. […]

Nc1c(N2CCN(C3CCCCC3)CC2)cc(Nc2ccc(C(=O)O)cc2)c2c1C(=O)c1ccccc1C2=O [Compound 12, 4-{[4-amino-3-(4-cyclohexylpiperazin-1-yl)-9,10-dioxo-9,10-dihydroanthracen-1-yl]amino}benzoic acid]
IC50 (JAK3): > 10 µM
IC50 (TIE2/TEK): > 10 µM
IC50 (VEGFR3/FLT4): > 10 µM
IC50 (FLT3 (CD)): > 10 µM
IC50 (TrkC [1]): > 10 µM
IC50 (IR): > 10 µM
IC50 (PKCmu/PKD1): > 10 µM
IC50 (PKG1b): > 10 µM
IC50 (PDGFRb): > 10 µM
IC50 (P38a/MAPK14): > 10 µM
relative analgesic effect compared to morphine (HCl) at 3 mg/kg, s.c. [2]: about 48%
IC50 (TrkB [3]): > 10 µM
IC50 (FES/FPS): > 10 µM
IC50 (FGR): > 10 µM
IC50 (PKCiota): > 10 µM
IC50 (TrkB [4]): > 10 µM
IC50 (ABL1): > 10 µM
IC50 (PKCgamma): > 10 µM
IC50 (TrkC [5]): > 10 µM
IC50 (AKT1): > 10 µM
IC50 (TEC): > 10 µM
IC50 (RAF1): > 10 µM
IC50 (PKCbetaII): > 10 µM
IC50 [6]: ~7 µM
